The results in this text go back to patent US8969325B2, “TRPV1 antagonists” (AbbVie Inc., priority 2011, dated 2015).

As a reminder, the IC50 is the concentration that gives 50% inhibition.

The test system of data set [1] is rats. Put plainly: Sodium iodoacetate-induced knee joint osteoarthritic pain model (hind limb grip force). It counts as in vivo. The note with it: rat, po, single acute dose, 1 hour after administration, 20 days after sodium iodoacetate, read-out: % effect (% return to normalcy of hind limb grip force). As to the method: Unilateral knee joint osteoarthritis was induced in the rats by a single intra-articular (i.a.) injection of sodium iodoacetate (3 mg in 0.05 mL sterile isotonic saline) into the right knee joint cavity under light isoflurane anesthesia using a 26 G needle. […] Pain behavioral assessment of hind limb grip force was conducted by recording the maximum compressive force exerted on the hind limb strain gauge setup, in a commercially available grip force measurement system (Columbus Instruments, Columbus, Ohio). The grip force data was converted to a maximum hindlimb cumulative compressive force (CFmax) (gram force)/kg body weight for each animal. The analgesic effects of test compounds were determined 20 days following the i.a. injection of sodium iodoacetate. The vehicle control group for each compound being tested was assigned 0% whereas the age matched naïve group was assigned as being 100% (normal). The % effect for each dose group was then expressed as % return to normalcy compared to the naïve group. Test compounds were administered orally in 10% ethanol/20% Tween 80/70% polyethylene glycol-400 vehicle at a volume of 2 mL/kg. The assessment of the analgesic effects of test compounds was made 1 hour following oral administration. The assessment of the analgesic effects of test compounds can be made following a single dose or following repeated administration wherein the frequency of dosing is 1 to 2 times daily. The duration of such repeated daily dosing may last for any time greater than one day. A typical duration of repeated daily dosing is about 5 days to about 12 days.

For data set [2], the target named is T1, human TRPV1 (Homo sapiens (Human), UniProt Q8NER1). Put plainly: Acid Activation Assay (pH 5.0, intracellular Ca2+, FLIPR). It counts as cell-based. Conditions: percentage of the maximal pH 5.0-induced response remaining; recombinant HEK293 hTRPV1 cells; maximum concentration tested 37.5 μM. The gist of the method:
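HEK293 cells stably expressing recombinant hTRPV1, loaded with Calcium-4 dye 90-120 min at 25° C. Compounds added over a 12-point half-log range (top 37.5 μM), then pH 5.0 DPBS/MES challenge after 3 min; FLIPR peak fluorescence over baseline given as % of maximal pH 5.0 response.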

Data set [3] has as its target T1, human TRPV1. Put plainly: Capsaicin Activation Assay (intracellular Ca2+, FLIPR). The note with it: recombinant HEK293 cells expressing hTRPV1, 50 nM capsaicin. It counts as cell-based. The gist of the method:
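Stably transfected HEK293 cells expressing human TRPV1 cDNA, plated the day before in poly-D-lysine plates. Compounds serially diluted from 10 mM DMSO stocks; intracellular Ca2+ fluorescence read on FLIPR at 1 to 5 second intervals.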

Data set [4] relates to rats. Put plainly: Rat acute capsaicin-induced flinching behavior. It counts as in vivo. Conditions: 1 h, oral dose given as 100 nmol/kg, capsaicin 2.5 μg into hind paw one hour after compound, five minute observation, relative to control-treated animals, read-out: % effect (percent reduction in the number of flinching behaviors). The procedure: Rats were placed in individual observation cages. Following an acclimation period of 30 minutes, selected compounds were administered orally at a dose of 100 nmol/kg in a vehicle (10% ethanol/20% Tween 80/70% polyethylene glycol-400) at a volume of 2 mL/kg. One hour after administration of the compound, 2.5 μg of capsaicin in a 10 μL solution of 10% ethanol/90% hydroxypropyl-β-cyclodextrin was injected subcutaneously into the dorsal aspect of the right hind paw. The observation cage was then suspended above mirrors in order to facilitate observation. […] The number of flinching behaviors of the injured paw was recorded during the five minute observation period (Gilchrist, H. D.; Allard, B. L.; Simone, D. A.; Enhanced withdrawal responses to heat and mechanical stimuli following intraplantar injection of capsaicin in rats. Pain, 1996, 67, 179-188). The percent reduction in the number of flinching behaviors produced from oral administration of the test compounds relative to control-treated animals (% effect) is reported in Table 2.

The test system of data set [5] is rats. Put plainly: Rat tail immersion assay of noxious thermosensation. Conditions: morphine 6 mg/kg i.p. in saline, 55° C. water bath, relative to vehicle control. It counts as in vivo. The procedure:
Compounds were tested for their effects on noxious thermosensation using the tail immersion assay. Testing was performed one hour following oral administration of 100 μmol/kg of the compound in 10% ethanol/20% Tween-80/70% PEG-400 (2 mL/kg). Mophine (6 mg/kg) was administered interperitoneally (i.p.) using saline (2 mL/kg) as the vehicle. For testing, a circulating water bath was heated to 55° C. Thirty to sixty minutes post dosing, the rats were handled for a few seconds to calm them down and then cupped with their back against the testers hand at a slight angle with head facing away from tester. With rat in one hand and a 0.01 second stopwatch in the other hand, the tail was quickly immersed 6-8 cm in water bath or to a distance leaving 2-3 cm of tail out of water. The timer was started simultaneously. When the rat flinched or attempted withdrawal, timer was immediately stopped and the rat's tail was quickly removed from water bath. This response latency (in seconds) was recorded. Process was repeated 3 times with 3-4 minutes between readings for a final average.
For a given compound, a percent increase in the average response latency (in seconds) for tail withdrawal relative to a vehicle control was determined % increase=[(tc−tv)/tv]×100% […]
Table 1 reports the % increase in tail withdrawal latency measured for the compounds tested. […]

Structures are written as SMILES.

T1 sequence (Q8NER1 whole entry): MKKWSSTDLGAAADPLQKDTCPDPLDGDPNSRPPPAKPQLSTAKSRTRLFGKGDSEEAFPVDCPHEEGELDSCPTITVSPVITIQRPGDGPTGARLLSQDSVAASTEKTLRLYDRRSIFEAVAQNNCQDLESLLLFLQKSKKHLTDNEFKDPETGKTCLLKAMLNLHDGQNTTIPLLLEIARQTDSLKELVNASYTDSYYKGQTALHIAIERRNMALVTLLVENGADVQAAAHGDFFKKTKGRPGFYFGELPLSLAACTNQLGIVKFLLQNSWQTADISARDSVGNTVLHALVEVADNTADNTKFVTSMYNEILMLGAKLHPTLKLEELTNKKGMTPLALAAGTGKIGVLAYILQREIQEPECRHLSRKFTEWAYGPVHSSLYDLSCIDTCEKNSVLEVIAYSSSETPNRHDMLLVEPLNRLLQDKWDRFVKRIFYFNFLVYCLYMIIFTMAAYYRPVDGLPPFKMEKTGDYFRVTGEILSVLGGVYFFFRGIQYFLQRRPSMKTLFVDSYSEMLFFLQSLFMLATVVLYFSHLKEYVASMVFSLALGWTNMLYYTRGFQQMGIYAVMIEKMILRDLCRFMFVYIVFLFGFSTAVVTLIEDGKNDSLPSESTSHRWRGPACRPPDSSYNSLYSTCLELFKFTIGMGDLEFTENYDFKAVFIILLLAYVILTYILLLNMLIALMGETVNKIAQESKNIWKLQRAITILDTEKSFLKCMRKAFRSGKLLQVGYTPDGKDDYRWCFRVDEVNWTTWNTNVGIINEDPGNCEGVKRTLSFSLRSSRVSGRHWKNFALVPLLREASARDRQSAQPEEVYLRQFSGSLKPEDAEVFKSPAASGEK

Turning to `CN1Cc2ccc(NC(=O)N[C@@H]3C[C@](C)(C(F)(F)F)Oc4ccccc43)cc2NC1=O` [Example 18, 1-(3-methyl-2-oxo-1,2,3,4-tetrahydroquinazolin-7-yl)-3-[(2R,4R)-2-methyl-2-(trifluoromethyl)-3,4-dihydro-2H-chromen-4-yl]urea], in the data set on rats [1], the inhibition in vivo at 13 mg/kg came to 62%. In addition, the “human TRPV1 H^+ (max % remain)” value at human TRPV1 [2] stood at 51%. Also, the IC50 at human TRPV1 [3] is 48 nM. Also, in the data set on rats [4], the inhibition in vivo at 0.1 µmol/kg came out at 64%.

As for `CC1(C)C[C@@H](NC(=O)Nc2ccc3c(c2)NC(=O)CC3)c2ccc(F)c(F)c2O1` [Example 33, 1-[(4R)-7,8-difluoro-2,2-dimethyl-3,4-dihydro-2H-chromen-4-yl]-3-(2-oxo-1,2,3,4-tetrahydroquinolin-7-yl)urea], in the data set with rats [1], the inhibition in vivo at 10 mg/kg came out at 37%. In addition, the “human TRPV1 H^+ (max % remain)” value on human TRPV1 [2] is recorded as 42%. Further, on human TRPV1 [3], the IC50 worked out at 20 nM. The inhibition in vivo at 0.1 µmol/kg in the data set on rats [4] amounted to 59%.

`CN1C(=O)CCc2ccc(NC(=O)N[C@@H]3CCOc4cc(C(F)(F)F)ccc43)cc21` [Example 37, 1-(1-methyl-2-oxo-1,2,3,4-tetrahydroquinolin-7-yl)-3-[(4R)-7-(trifluoromethyl)-3,4-dihydro-2H-chromen-4-yl]urea]: the inhibition in vivo at 13 mg/kg in the data set on rats [1] turned out to be 43%. Also, the “human TRPV1 H^+ (max % remain)” value on human TRPV1 [2] was found to be 60%. At human TRPV1 [3], the IC50 turned out to be 50 nM. Also, the inhibition in vivo at 0.1 µmol/kg in the data set with rats [4] stood at 78%.

In the case of `CC1(C)C[C@@H](NC(=O)Nc2ccc3c(c2)NC(=O)CO3)c2ccc(F)cc2O1` [Example 38, 1-[(4R)-7-fluoro-2,2-dimethyl-3,4-dihydro-2H-chromen-4-yl]-3-(3-oxo-3,4-dihydro-2H-1,4-benzoxazin-6-yl)urea], in the data set on rats [1], the inhibition in vivo at 10 mg/kg came out at 63%. The “human TRPV1 H^+ (max % remain)” value at human TRPV1 [2] was determined as 92%. For the same molecule, the IC50 at human TRPV1 [3] is 56 nM. Further, in the data set on rats [4], the inhibition in vivo at 0.1 µmol/kg amounted to 69%.

Take `C[C@]1(CF)C[C@@H](NC(=O)Nc2ccc3c(c2)NC(=O)CC3)c2ccc(Cl)cc2O1` [Example 241, 1-[(2R,4R)-7-chloro-2-(fluoromethyl)-2-methyl-3,4-dihydro-2H-chromen-4-yl]-3-(2-oxo-1,2,3,4-tetrahydroquinolin-7-yl)urea]: the “human TRPV1 H^+ (max % remain)” value on human TRPV1 [2] was determined as 54%. Further, on human TRPV1 [3], the IC50 amounted to 130 nM. The inhibition in vivo at 0.1 µmol/kg in the data set with rats [4] was determined as 53%.

`CN1CC[C@]23c4c5ccc(O)c4O[C@H]2[C@@H](O)C=C[C@H]3[C@H]1C5` [Morphine, morphine]: the “% Increase in tail withdrawal latency” value with rats [5] is reported as “+++ (greater than or equal to 25% increase)”.
